Assay results published in the supplement of paper PMC10307832.

Key:
Assay in all cases: relative viability (nuclei count vs DMSO), 5 days (fraction); higher = more cells survive
[1] = compound: CC1(COc2ccc3c(c2)ncn3-c2ccc3cccc(N4CCC(N)CC4)c3n2)COC1 [Crenolanib] + Cc1cc(Nc2cc(N3CCN(C)CC3)nc(Sc3ccc(NC(=O)C4CC4)cc3)n2)n[nH]1 [Tozasertib] (partner 0.1 µM)
Method in brief: (§1)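 One day after seeding in 1536-well plates, lung cancer cell lines were dosed by pin tool. Dosing was either single-drug or a fixed anchor-drug dose plus five library-drug doses (not always all listed) in √10 steps. After 5 days, nuclei were stained in one fix-and-stain step and counted on 4× images, and relative viability is the nuclei count of treated wells over that of vehicle wells, given as the median of duplicate plates.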

[2] = compound: O=C1NC(=O)[C@@H](c2cn3c4c(cccc24)CCC3)[C@@H]1c1c[nH]c2ccccc12 [Tivantinib] + CC1(C)CCC(c2ccc(Cl)cc2)=C(CN2CCN(c3ccc(C(=O)NS(=O)(=O)c4ccc(N[C@H](CCN5CCOCC5)CSc5ccccc5)c(S(=O)(=O)C(F)(F)F)c4)cc3)CC2)C1 [Navitoclax] (partner 0.5 µM)
Method in brief: as §1

[3] = compound: O=C1NC(=O)[C@@H](c2cn3c4c(cccc24)CCC3)[C@@H]1c1c[nH]c2ccccc12 [Tivantinib] + C[C@@H](Oc1cc(-c2cnn(C3CCNCC3)c2)cnc1N)c1c(Cl)ccc(F)c1Cl [Crizotinib] (partner 1 µM)
Method in brief: as §1

[4] = compound: O=C1NC(=O)[C@@H](c2cn3c4c(cccc24)CCC3)[C@@H]1c1c[nH]c2ccccc12 [Tivantinib] + Nc1nc2[nH]cc(CCc3ccc(C(=O)N[C@@H](CCC(=O)O)C(=O)O)cc3)c2c(=O)[nH]1 [Pemetrexed] (partner 0.2 µM)
Method in brief: as §1

Row | Cell Line | relative viability ([1]; first compound 0.01 µM) | relative viability ([1]; first compound 0.03162 µM) | relative viability ([1]; first compound 0.1 µM) | relative viability ([1]; first compound 0.3162 µM) | relative viability ([1]; first compound 1 µM) | relative viability ([2]; first compound 0.01 µM) | relative viability ([2]; first compound 0.03162 µM) | relative viability ([2]; first compound 0.1 µM) | relative viability ([2]; first compound 0.3162 µM) | relative viability ([3]; first compound 0.01 µM) | relative viability ([3]; first compound 0.03162 µM) | relative viability ([3]; first compound 0.1 µM) | relative viability ([3]; first compound 0.3162 µM) | relative viability ([4]; first compound 0.01 µM) | relative viability ([4]; first compound 0.03162 µM) | relative viability ([4]; first compound 0.1 µM) | relative viability ([4]; first compound 0.3162 µM)
1 | LXF-289 | 0.183 | 0.222 | 0.201 | 0.181 | 0.176 | 0.987 | 0.949 | 0.93 | 0.933 | 0.792 | 0.819 | 0.777 | 0.827 | 0.925 | 0.501 | 0.896 | 0.925
2 | NCI-H1437 | 0.458 | 0.443 | 0.415 | 0.437 | 0.39 | 1.1 | 1.11 | 0.968 | 1.1 | 0.875 | 1.07 | 0.977 | 0.91 | 0.336 | 0.319 | 0.315 | 0.298
3 | HCC-827 | 0.422 | 0.417 | 0.421 | 0.389 | 0.431 | 1.04 | 1.05 | 0.926 | 1.02 | 0.92 | 1.01 | 0.91 | 0.779 | 0.251 | 0.257 | 0.272 | 
4 | NCI-H1650 | 0.334 | 0.508 | 0.361 | 0.4 | 0.357 | 1.33 | 1.33 | 0.987 | 0.929 | 1.07 | 0.903 | 1.04 | 0.984 | 0.417 | 0.4 | 0.471 | 0.315
5 | HCC-366 | 0.167 | 0.148 | 0.154 | 0.144 | 0.108 | 0.951 | 1.14 | 1.03 | 1.07 | 0.641 | 0.559 | 0.43 | 0.672 | 0.163 | 0.145 | 0.148 | 0.149
6 | EKVX | 0.465 | 0.346 | 0.428 | 0.364 | 0.359 | 0.996 | 0.953 | 0.929 | 0.433 | 0.944 | 0.965 | 0.712 | 0.242 | 0.344 | 0.413 | 0.425 | 0.203
7 | NCI-H2126 | 0.87 | 0.909 | 0.807 | 0.699 | 0.745 | 0.822 | 0.821 | 0.846 | 0.713 | 1.02 | 1.01 | 0.983 | 1.03 | 0.677 | 0.633 | 0.706 | 0.547
8 | LK-2 | 0.164 | 0.179 | 0.19 | 0.177 | 0.171 | 0.913 |  | 0.705 | 0.83 | 0.2 |  | 0.223 | 0.218 | 0.261 | 0.286 | 0.276 | 0.244
9 | NCI-H1563 |  |  |  |  |  |  |  |  |  | 0.851 | 0.893 | 0.822 | 0.884 | 0.558 | 0.703 | 0.715 | 0.624
10 | COR-L23 | 0.214 | 0.22 | 0.201 | 0.206 | 0.185 | 1.18 | 1.09 | 0.998 | 1.19 | 0.677 | 0.662 | 0.611 | 0.844 | 0.194 | 0.195 | 0.204 | 0.195
